Data on three substances can be found in US11597748B2, “Peptide having cytoprotective effect against environmental pollutant and use thereof” (CAREGEN CO., LTD., priority 2017, dated 2023).

Data set [1] has as its system CYP1A1, TNF-a, IL-6, IL-1b, COX-2 mRNA. Nature of the data set: RT-PCR of CYP1A1 and inflammatory molecules induced by TCDD. The class given is cell-based, human. To be noted: HaCaT cells; 10 nM TCDD; 50 μM peptide; 6 hours or 24 hours. As for the experimental part:
(§1) HaCaT cells, human keratinocyte cells, were seeded on a 6-well plate at a density of 3×10^5 cells/well and cultured overnight. Subsequently, 10 nM of TCDD and 50 μM of the peptide consisting of an amino acid sequence of SEQ ID NO: 1, 2, or 3 were added to the culture medium. After 30 minutes of reaction, the cells were treated for 6 hours or 24 hours and collected to separate RNA therefrom. After quantifying RNA, cDNA was synthesized using a cDNA synthesis kit (Intron, Korea). Then, polymerase chain reaction (PCR) was performed using a PCR PreMix kit (Intron, Korea) and a primer for each of CYP1A1, TNF-a, IL-6, IL-1 b, and COX-2 shown in Table 4. Then, by running the resultant on a 5% agarose gel, the expression levels of mRNA of the growth factors were compared under the conditions of treating the respective samples, and the results are shown in FIGS. 5A to 5C.

Data set [2] shares this test system. The data set is described as follows: RT-PCR of CYP1A1 and inflammatory molecules induced by particulate matter. The class given is cell-based, human. To be noted: HaCaT cells; 10 nM particulate matter; 50 μM peptide; 6 hours or 24 hours. As for the experimental part:
as §1, with “particulate matter (PM)” for “TCDD”, “PCR” for “polymerase chain reaction (PCR)”, “IL-1b,” for “IL-1 b,”, “5.” for “4.”, “7A” for “5A”, “7C.” for “5C.”

No end group written: not given here.

Take DVENTS [SEQ ID NO: 3, DVENTS]: in data set [1], the “effect on expressions of CYP1A1 and inflammatory factors induced by TCDD (in words)” value (from here on “effect on expressions … by TCDD (in words)”) is “inhibiting expressions of CYP1A1 and various inflammatory factors induced by TCDD”. Further, the “effect on expressions of CYP1A1 and inflammatory factors induced by particulate matter (in words)” value (“effect … by particulate matter (in words)” for short) in data set [2] is “inhibiting expressions of CYP1 A1 and various inflammatory factors induced by particulate matter”.

Consider ILGRWCG [SEQ ID NO: 2, ILGRWCG], for which the “effect on expressions … by TCDD (in words)” value in data set [1] was “inhibiting expressions of CYP1A1 and various inflammatory factors induced by TCDD”. Moreover, in data set [2], the “effect … by particulate matter (in words)” value is “inhibiting expressions of CYP1 A1 and various inflammatory factors induced by particulate matter”.

Take KWGGGRY [SEQ ID NO: 1, KWGGGRY]: the “effect on expressions … by TCDD (in words)” value in data set [1] was “inhibiting expressions of CYP1A1 and various inflammatory factors induced by TCDD”. Also, the “effect … by particulate matter (in words)” value in data set [2] was “inhibiting expressions of CYP1 A1 and various inflammatory factors induced by particulate matter”.
